From PubChem BioAssay (NCI)
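In this assay, cells in 96-well plates receive the compound at five concentrations for 48 hours. Endpoints are linearly interpolated between the surrounding concentrations. GI50 = concentration required for 50% inhibition of growth. At the TGI there is no net growth.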

Legend:
Assay in all cases: DTP human tumour cell line panel, 48 h
786-0 renal = system: 786-0 renal
A498 renal = system: A498 renal
A549 NSCLC = system: A549 NSCLC
ACHN renal = system: ACHN renal
BT-549 breast = system: BT-549 breast
CAKI-1 renal = system: CAKI-1 renal
CCRF-CEM leukemia = system: CCRF-CEM leukemia
COLO 205 colon = system: COLO 205 colon
DU-145 prostate = system: DU-145 prostate
EKVX NSCLC = system: EKVX NSCLC
HCC-2998 colon = system: HCC-2998 colon
HCT-116 colon = system: HCT-116 colon
HCT-15 colon = system: HCT-15 colon
HL-60(TB) leukemia = system: HL-60(TB) leukemia
HOP-62 NSCLC = system: HOP-62 NSCLC
HOP-92 NSCLC = system: HOP-92 NSCLC
HS 578T breast = system: HS 578T breast
HT29 colon = system: HT29 colon
IGROV1 ovarian = system: IGROV1 ovarian
K-562 leukemia = system: K-562 leukemia
KM12 colon = system: KM12 colon
M14 melanoma = system: M14 melanoma
MALME-3M melanoma = system: MALME-3M melanoma
MCF7 breast = system: MCF7 breast
MDA-MB-231 breast = system: MDA-MB-231 breast
MDA-MB-435 = system: MDA-MB-435
MOLT-4 leukemia = system: MOLT-4 leukemia
NCI-H226 lung = system: NCI-H226 lung
NCI-H23 lung = system: NCI-H23 lung
NCI-H460 lung = system: NCI-H460 lung
NCI-H522 lung = system: NCI-H522 lung
NCI/ADR-RES ovarian = system: NCI/ADR-RES ovarian
OVCAR-3 ovarian = system: OVCAR-3 ovarian
OVCAR-4 ovarian = system: OVCAR-4 ovarian
OVCAR-5 ovarian = system: OVCAR-5 ovarian
OVCAR-8 ovarian = system: OVCAR-8 ovarian
PC-3 prostate = system: PC-3 prostate
RPMI-8226 leukemia = system: RPMI-8226 leukemia
RXF 393 renal = system: RXF 393 renal
SF-268 CNS = system: SF-268 CNS
SF-295 CNS = system: SF-295 CNS
SF-539 CNS = system: SF-539 CNS
SK-MEL-2 melanoma = system: SK-MEL-2 melanoma
SK-MEL-28 melanoma = system: SK-MEL-28 melanoma
SK-MEL-5 melanoma = system: SK-MEL-5 melanoma
SK-OV-3 ovarian = system: SK-OV-3 ovarian
SN12C renal = system: SN12C renal
SNB-19 CNS = system: SNB-19 CNS
SNB-75 CNS = system: SNB-75 CNS
SR leukemia = system: SR leukemia
SW-620 colon = system: SW-620 colon
T-47D breast = system: T-47D breast
TK-10 renal = system: TK-10 renal
U251 CNS = system: U251 CNS
UACC-257 melanoma = system: UACC-257 melanoma
UACC-62 melanoma = system: UACC-62 melanoma
UO-31 renal = system: UO-31 renal

SMILES: Cn1ccnc1C(=O)/C=C/c1ccc(NC(=O)Nc2ccccc2)cc1
- GI50 (786-0 renal): 19.1 µM
- TGI (786-0 renal): 47.3 µM
- GI50 (A498 renal): 21.3 µM
- TGI (A498 renal): 65.6 µM
- GI50 (A549 NSCLC): 21.8 µM
- TGI (A549 NSCLC): > 100 µM
- GI50 (ACHN renal): 23.1 µM
- TGI (ACHN renal): 72 µM
- GI50 (BT-549 breast): 13.6 µM
- TGI (BT-549 breast): 29.9 µM
- GI50 (CAKI-1 renal): 20.8 µM
- TGI (CAKI-1 renal): 99.3 µM
- GI50 (CCRF-CEM leukemia): 21.5 µM
- TGI (CCRF-CEM leukemia): > 100 µM
- GI50 (COLO 205 colon): 16.9 µM
- TGI (COLO 205 colon): 31.6 µM
- GI50 (DU-145 prostate): 12.5 µM
- TGI (DU-145 prostate): 32.5 µM
- GI50 (EKVX NSCLC): 22.6 µM
- TGI (EKVX NSCLC): 63.4 µM
- GI50 (HCC-2998 colon): 14.7 µM
- TGI (HCC-2998 colon): 28.6 µM
- GI50 (HCT-116 colon): 13.3 µM
- TGI (HCT-116 colon): 26.6 µM
- GI50 (HCT-15 colon): 7.16 µM
- TGI (HCT-15 colon): 27.2 µM
- GI50 (HL-60(TB) leukemia): 15.6 µM
- TGI (HL-60(TB) leukemia): 69.1 µM
- GI50 (HOP-62 NSCLC): 24.1 µM
- TGI (HOP-62 NSCLC): 69.2 µM
- GI50 (HOP-92 NSCLC): 20.6 µM
- TGI (HOP-92 NSCLC): 69.1 µM
- GI50 (HS 578T breast): 33.7 µM
- TGI (HS 578T breast): > 100 µM
- GI50 (HT29 colon): 15.9 µM
- TGI (HT29 colon): 31 µM
- GI50 (IGROV1 ovarian): 19.1 µM
- TGI (IGROV1 ovarian): 64.1 µM
- GI50 (K-562 leukemia): 8.29 µM
- TGI (K-562 leukemia): > 100 µM
- GI50 (KM12 colon): 18.1 µM
- TGI (KM12 colon): 41.8 µM
- GI50 (M14 melanoma): 20.8 µM
- TGI (M14 melanoma): 58.5 µM
- GI50 (MALME-3M melanoma): 18.3 µM
- TGI (MALME-3M melanoma): 50.7 µM
- GI50 (MCF7 breast): 15.6 µM
- TGI (MCF7 breast): 86.3 µM
- GI50 (MDA-MB-231 breast): 16.9 µM
- TGI (MDA-MB-231 breast): 34 µM
- GI50 (MDA-MB-435): 21.6 µM
- TGI (MDA-MB-435): 58.3 µM
- GI50 (MOLT-4 leukemia): 16.5 µM
- TGI (MOLT-4 leukemia): 85.1 µM
- GI50 (NCI-H226 lung): 22.9 µM
- TGI (NCI-H226 lung): > 100 µM
- GI50 (NCI-H23 lung): 16.1 µM
- TGI (NCI-H23 lung): 37.3 µM
- GI50 (NCI-H460 lung): 17.2 µM
- TGI (NCI-H460 lung): 47.8 µM
- GI50 (NCI-H522 lung): 13 µM
- TGI (NCI-H522 lung): 27.3 µM
- GI50 (NCI/ADR-RES ovarian): 29 µM
- TGI (NCI/ADR-RES ovarian): > 100 µM
- GI50 (OVCAR-3 ovarian): 29 µM
- TGI (OVCAR-3 ovarian): > 100 µM
- GI50 (OVCAR-4 ovarian): 20.2 µM
- TGI (OVCAR-4 ovarian): > 100 µM
- GI50 (OVCAR-5 ovarian): 19.9 µM
- TGI (OVCAR-5 ovarian): 55.1 µM
- GI50 (OVCAR-8 ovarian): 25 µM
- TGI (OVCAR-8 ovarian): > 100 µM
- GI50 (PC-3 prostate): 18.4 µM
- TGI (PC-3 prostate): 49.5 µM
- GI50 (RPMI-8226 leukemia): 16 µM
- TGI (RPMI-8226 leukemia): 54.8 µM
- GI50 (RXF 393 renal): 12.7 µM
- TGI (RXF 393 renal): 27 µM
- GI50 (SF-268 CNS): 28.7 µM
- TGI (SF-268 CNS): > 100 µM
- GI50 (SF-295 CNS): 14.8 µM
- TGI (SF-295 CNS): 46.4 µM
- GI50 (SF-539 CNS): 13.9 µM
- TGI (SF-539 CNS): 28.5 µM
- GI50 (SK-MEL-2 melanoma): 16.8 µM
- TGI (SK-MEL-2 melanoma): 36 µM
- GI50 (SK-MEL-28 melanoma): 16.2 µM
- TGI (SK-MEL-28 melanoma): 32.8 µM
- GI50 (SK-MEL-5 melanoma): 15.7 µM
- TGI (SK-MEL-5 melanoma): 29.4 µM
- GI50 (SK-OV-3 ovarian): 32.5 µM
- TGI (SK-OV-3 ovarian): > 100 µM
- GI50 (SN12C renal): 14.9 µM
- TGI (SN12C renal): 40.4 µM
- GI50 (SNB-19 CNS): 16.7 µM
- TGI (SNB-19 CNS): 42.8 µM
- GI50 (SNB-75 CNS): 12.9 µM
- TGI (SNB-75 CNS): 26 µM
- GI50 (SR leukemia): 4.9 µM
- TGI (SR leukemia): 75.3 µM
- GI50 (SW-620 colon): 18.7 µM
- TGI (SW-620 colon): 54.3 µM
- GI50 (T-47D breast): 23.4 µM
- TGI (T-47D breast): > 100 µM
- GI50 (TK-10 renal): 29.8 µM
- TGI (TK-10 renal): > 100 µM
- GI50 (U251 CNS): 13.6 µM
- TGI (U251 CNS): 29.6 µM
- GI50 (UACC-257 melanoma): 16.1 µM
- TGI (UACC-257 melanoma): 38.8 µM
- GI50 (UACC-62 melanoma): 15.3 µM
- TGI (UACC-62 melanoma): 30.8 µM
- GI50 (UO-31 renal): 14.3 µM
- TGI (UO-31 renal): 29.4 µM
